Key:
[1] = system: contaminants from Strawberry Creek water; conditions: 10 mM chlorite spiked, reactor contaminated with 1% (v/v) creek water, OW115
Description: (§1) A 2 L round-bottom autoclavable laboratory fermenter (BiOENGiNEERiNG), was operated as an iso-volumetric chemostat with 1 L of MRM medium in the bioreactor vessel. Temperature, dissolved oxygen (dO), and pH were monitored during the course of the experiments. Temperature was set and maintained at 37° C. pH was set to 7.2 and adjusted automatically based on the real time pH value with 1M NaOH or 1M HCl. dO was set to 20% of the maximal dO value at 37° C. with constant air flow of 2 L/min. Constant dO was maintained by automatic agitation speed adjustment based on the real-time dO value. Agitation speed varied between 200-700 RPM, depending on oxygen demand. Two separate pumps were used to control medium inflow and waste outflow rates.

[2] = system: SCW enrichment culture; conditions: 4 mM chlorite, OW117 bioreactor, SCW enrichment added
Description: as §1

[3] = system: OW94
Description: as §1
(§2) The chemostat at first operated as a batch culture (dilution rate equal to 0), until the culture reached mid-log phase (OD600 of ˜0.7-1.0), then dilution rate was set to be approximately equal to the cell growth rate. This allowed the bioreactor to achieve a zero net growth while maintaining a near-maximum specific growth rate. […] All growth data were plotted and calculated using the Prism 7 software.

[4] = system: OW116
Description: as §1, §2

[5] = system: Azospira suillum PS; conditions: 40 μM chlorite, unpublished observations
[6] = system: chlorite hyper-resistant strain OW105; conditions: MRM medium
Description: (§3) 100 μL of water was added to the negative control wells. The plate was then placed in a shaker and cultivated overnight at 37° C., 250 rpm. IC50 were determined 24 hours after inoculation by measuring OD600.
OW95 cells were revived from freezer stocks, transferred into liquid MRM medium, and induced for Cld expression as described above.

[7] = system: wtCld-expressing OW95
Description: as §3

[8] = system: RFP-expressing E. coli, OW94; conditions: read-out: chlorite IC50; OW94 negative control, growth (OD600) 24 hours at 37° C., MRM medium
Description: as §3

[9] = system: cCld expressing strain OW116
Description: as §3

[10] = system: parental LMG194; conditions: read-out: chlorite IC50; LMG194, growth (OD600) 24 hours at 37° C., MRM medium
Description: as §3

[11] = system: SCW enrichment culture, OW117 and OW118; conditions: SCW enrichment vs OW117 vs OW118
Source text: as §2

[12] = system: E. coli lytic phages; conditions: 4 mM chlorite, 37° C.
Description: (§4) Influent wastewater samples were collected from the East Bay Municipal Utility District's wastewater treatment plant in Oakland, CA, and filtered through […] filters to remove debris and microbes. To make a phage enrichment culture, 5 mL of filtered wastewater was mixed with 5 mL of 2× LB medium and inoculated with 100 μL of stationary E. coli cells, incubated for 48 hours at 37° C., 50 RPM. Next, a sterile cotton swab was dipped into an overnight E. coli culture, smeared on an LB agar plate, and 10 μL of the phage enrichment culture was then spotted on the plate. The plate was incubated overnight at 37° C. […] Phage particles from the clear zone were picked into the phage buffer (10 mM Tris, 1 mM CaCl2 10 mM MgCl2, 68 mM NaCl, pH 7.5, adapted from the Phage Hunting Program, University of Pittsburgh), followed by dilution to extinction and plating to obtain single plaques with pure phage cultures. Phage cultures were maintained at 4° C. in the phage buffer. […] Samples were taken at designated time points and mixed with PYE (0.3%) agar and log phase (OD660 0.1-04) C. crescentus culture before plating on PYE plates. Plaque forming unites were counted after 24 hours.

[13] = system: C. crescentus phage CR-30; conditions: incubated with chlorite at 30 C
Description: as §4

[14] = system: cld deletion (Acid) mutant; conditions: 40 μM chlorite, unpublished observations
[15] = 4 mM chlorite spiked into chemostat at equilibrium growth, 37° C.
[16] = batch cultures, different chlorite concentrations

## Sodium chlorite
[1]
  effect of chlorite spike on the contaminated bioreactor: contaminants were inhibited and washed out
[2]
  indigo production after addition of contaminants: indigo was steadily produced until the end of the experiment
[3]; [15]
  specific growth rate after the chlorite spike: 0.01 ± 0.07 h⁻¹
[3]; [16]
  specific growth rate in batch culture as chlorite concentration increased: drastically decreased
[4]; [15]
  specific growth rate after the chlorite spike: 0.64 ± 0.10 h⁻¹
[4]; 4 mM chlorite, chemostat, vs before spike
  reduction of specific growth rate after the chlorite spike: ~20%
[4]; [16]
  specific growth rate in batch culture as chlorite concentration increased: only reduced slightly
[5]
  aerobic growth in the presence of chlorite: grew aerobically
[6]; end of directed evolution, 37° C.
  chlorite concentration in which the strain was able to grow, reaching a similar final OD600 as without chlorite control: 8 mM
[6]; read-out: chlorite IC50, OW105, growth (OD600) 24 hours at 37° C.
  IC50: 4600 µM
[7]; OW95 vs OW94 and LMG194
  increase in chlorite resistance compared to negative controls: three-fold increase
[7]; read-out: chlorite IC50, OW95, Cld induced at 26° C., growth (OD600) 24 hours at 37° C., MRM medium
  IC50: 1740 µM
[8]
  IC50: 560 µM
[9]; cCld vs wtCld
  chlorite resistance of cCld relative to wtCld: 5 fold
[9]; read-out: chlorite IC50, OW116, growth (OD600) 24 hours at 37° C., MRM medium
  IC50: 8940 µM
[10]
  IC50: 300 µM
[11]
  batch growth in medium with chlorite: only OW118 could endure medium with chlorite
[12]
  phage inactivation: chlorite-induced phage inactivation
[13]
  phage inactivation: chlorite-induced phage inactivation
[14]
  aerobic growth in the presence of chlorite: failed to grow

— patent US12275927B2, “Microbial contamination control in bioprocessing” (The Regents of the University of California, priority 2019, dated 2025)
